Where two headings read alike, the source gives them in different places.
How the values were obtained:
[1] = Cytotoxicity (CC50), MTT assay on P4 cells; format: cell-based; details: human
Description: (§1) For the antiviral and the cytotoxicity assays, the drugs were diluted in complete DMEM medium. In these experiments, drugs were diluted in triplicate wells in a 96-well plate in six, 5 fold serial dilutions.
(§2) The 50% cytotoxic concentration (CCso) was determined using a protocol adapted from Pauwels et al. (1988. J. Virol. Methods 20(4):309-21). Briefly, flat bottom 96-well plates were filled with 50 μl of complete medium containing 5.10^3 P4 cells. 2 hours later 50 μl of drug solution were added to the cells. Drugs (dissolved in DMEM, see above) were diluted in six, 5-fold serial dilutions from stock solutions in triplicate wells of a 96-well plate. Cells and compounds were incubated at 37° C. in growth medium for 3 days. Cell viability was determined by MTT assays using the Roche Cell Proliferation KIT. The absorbance (λ=570 nm) was measured on a Benchmark™ Microplate Reader (Biorad) and compared with 12 cell control replicates (no drug added). Each assay was performed at least three times for a total of at least nine replicate wells. This method detects both cytostatic and cytolytic effects of drugs.

[2] = test system: HIV-1 mutant Cys188RT in TZM-bl cells; experiment: Anti-HIV assay on TZM-bl cells, Cys188RT mutant; format: cell-based; details: read-out: EC50 Cys188RT TZM-bl
Source text: In order to introduce mutation(s) at the level of the pol gene coding for the RT in the pNL4-3 plasmid containing the complete viral genome (Adachi et al., 1986. J. Virol., Vol. 59 p 284-291) we used the “Quick change mutagenesis kit” (Stratagene). The following mutations were separately introduced in pNL4-3: L100I, K103N, V108I, Y181C, Y188C, and the double mutations K103N/V108I. These mutations were chosen because of the resistance that they confer to existing NNRTI. The production procedure of the mutant viral stocks is identical to the one described above.
(§3) Anti-HIV activity and cytotoxicity of the compounds were tested on the TZM-b1 cell line. The TZM-b1 cell line (Wei et al. 2002. Antimicrob. Agents Chemother. Vol. 46, p 1896-1905) was received from the NIH AIDS Research and Reference Reagent Program. These cells were cultured in complete DMEM medium supplemented with 10% fetal bovine serum (FBS), and 1% Penicillin/Streptomycin. Exponentially growing cells were trypsinized, centrifuged and split twice weekly at 5 10^4 cells/ml.
(§4) The anti-HIV assay with TZM-b1 cells is essentially the same as described above with P4 cells. The main difference between the two cell lines is that the TZM-b1 cells express at their surface both the CD4 and CCR5 proteins, acting as receptor and co-receptor for HIV entry, respectively (Wei et al. 2002. Antimicrob. Agents Chemother. Vol. 46, p 1896-1905). This feature makes the cells very sensitive to infection by the virus. The TMZ-b1 cells were infected with equal amount of cell-free virus, corresponding to 10 ng of HIV p24 antigen. This amount is ten times lower than the amount used to infect the P4 cells.

[3] = test system: HIV-1 with WT (wild type) RT in TZM-bl cells; experiment: Anti-HIV assay on TZM-bl cell line, WT RT; format: cell-based
Description: Wurzburg Jurkat T cells (subclone JR) were transfected with 10 μg of the circularly permuted infectious molecular clone HIVNL4-3 (Adachi et al., 1986. J. Virol, 59 (2), p 284-291). Two days later, co-cultivation with SupT1 cells (a human T-cell lymphoma cell line) was initiated to facilitate rapid production of progeny virions. Production of virus was measured by using the Innotest HIV Antigen mAb p24 kit (Innogenetics). At the peak of production cultures were harvested and filtered. The virus stocks were stored at −80° C. until used.
as §3, §4

P4 cells = experiment: Cytotoxicity (CC50), MTT assay on P4 cells; format: cell-based; details: 3 days
Description: as §1, §2

[4] = molecular target: T1, HIV-1 reverse transcriptase (Human immunodeficiency virus type 1 group M subtype B, UniProt P04585); experiment: HIV-1 in vitro reverse transcriptase activity (fixed-time RNA dependent DNA polymerase assay); format: biochemical; details: residual RT activity, compound at 10 μM; RT activity without compound set at 100%
T1 construct: fixed-time assay for HIV-1 reverse transcriptase RNA dependent DNA polymerase activity; RT was purchased from Calbiochem; purchased Calbiochem CAL382129-500
Description: For the in vitro inhibition studies of the HIV-1 reverse transcriptase activity, stock solutions of the compounds of the present invention were prepared in dimethyl sulfoxide at a final concentration of 10 mM and kept at room temperature. Nevirapine was purchased from Boehringer Ingelheim. Efavirenz was received from the NIH AIDS Research and Reference Reagent Program.
In vitro inhibition studies used a fixed-time assay for HIV-1 reverse transcriptase RNA dependent DNA polymerase activity. RT was purchased from Calbiochem (ref CAL382129-500). One unit of RT corresponds to the amount of enzyme which incorporates one nanomole of [^3H]TTP in 10 minutes at 37° C.
Assays were performed in a final volume of 50 μl. […] Reaction mixtures were incubated at 37° C. for 10 min. The incorporation rate was determined by a standard trichloroacetic acid precipitation procedure (adapted from Current protocols in molecular biology. Eds Wiley, MGH Harvard medical school) and liquid scintillation counting using a Wallac scintillation counter.
The in vitro activity of the compounds, at a final concentration of 10 μM, on the reverse transcriptase (RT) activity of HIV-1 is derivable from the relative (%) reduction in RT activity. Hereby, the RT activity in the absence of any of the compounds is set at 100%.

[5] = Human immunodeficiency virus 1, TZM-bl

| Compound | CC50 at 3 days [1] [nM] | EC50 [2, 5] [nM] | EC50 ([3]; Human immunodeficiency virus 1) [nM] | CC50 (P4 cells) [nM] | Relative (%) RT activity in vitro (compound added at 10 μM) [4] [%] | EC50 [3] [nM] | EC50 ([2]; TZM-bl, mutant Cys188RT) [nM] |
| --- | --- | --- | --- | --- | --- | --- | --- |
| O=C1Nc2ccc(Cl)cc2[C@@](C#CC2CC2)(C(F)(F)F)O1 [Efavirenz, reference compound] | 40000 | < 1 | < 1 | – | – | – | – |
| CCc1c(C)[nH]c(=O)c(C)c1OC1CC(C)CC(C)C1 (stereo not shown) [Z154] | – | – | – | 80000 | 1.6 | 3 | – |
| CCc1c(C)[nH]c(=O)c([N+](=O)[O-])c1OC1CC(C)CC(C)C1 (stereo not shown) [Z91inv, 3-nitro-5-ethyl-6-methyl-4-[(3,5-dimethylcyclohexyl)oxy]pyridine-2(1H)-one] | 37200 | – | < 1 | – | 0 | – | – |
| CCc1c(C)[nH]c(=O)c(CO)c1OC1CC(C)CC(C)C1 (stereo not shown) [Z45inv] | – | – | – | 76000 | 12.1 | 197 | – |
| CCc1c(C)[nH]c(=O)c(N(C)C)c1OC1CC(C)CC(C)C1 (stereo not shown) [Z150, 3-(dimethylamino)-5-ethyl-6-methyl-4-[(3,5-dimethylcyclohexyl)oxy]pyridine-2(1H)-one] | 66000 | < 1 | < 1 | – | 0.9 | – | – |
| CCc1c(C)[nH]c(=O)c(CSC(C)=O)c1OC1CC(C)CC(C)C1 (stereo not shown) [Z114] | – | – | – | 8000 | 0 | 11 | 1 |
| CCOC(=O)c1c(OC2CC(C)CC(C)C2)c(CC)c(C)[nH]c1=O (single isomer, unassigned) [Z37inv] | – | – | – | 64000 | 5.5 | 439 | – |
| CCc1c(C)[nH]c(=O)c(CN=[N+]=[N-])c1OC1CC(C)CC(C)C1 (stereo not shown) [Z153] | – | – | – | 54000 | 0.7 | < 1 | < 1 |
| Cc1ccnc2c1NC(=O)c1cccnc1N2C1CC1 [Nevirapine, reference compound] | > 100000 | 2720 | 56 | – | 16.7 | – | – |
